# Like-named read-outs stand apart in the source and are kept apart here. Strand notation (5' to 3'): a small letter for the sugar, then the base; units joined by * are phosphorothioate-linked, units joined directly phosphodiester-linked; [ ] holds rarer units or linkages, { } end groups; capitals alone tell only the bases. [MMI] = methylene(methylimino) internucleoside backbone linkage; [PRP-N] = 2'-O-propyl ribonucleoside (N: the base); [PRP] = 2'-O-propyl ribonucleoside; e = 2'-O-(2-methoxyethyl) (MOE); [5mC] = 5-methylcytosine; d = 2'-deoxy (DNA); m = 2'-O-methyl; f = 2'-fluoro
# How the values were obtained:
# VCAM-1 mRNA = assay: ELISA of VCAM-1 expression in HUVECs; type: cell-based, human; conditions: for IC50: read-out: IC50 for inhibition of VCAM-1 expression
# ICAM-1 mRNA [1] = assay: Cell surface ICAM-1 expression in U937 cells after electroporation of MMI oligomers; type: cell-based, human; conditions: six concentrations 4 to 40 μM, N.A. = IC50 not obtained in the given dose range, read-out: Antisense activity (IC50) Electroporate
# Procedure: ISIS 14293-14296 are corresponding oligomers with alternating MMI/P═S backbones.
# U937 cells were washed once in cold Opti-MEM (Gibco-BRL, Grand Island, N.Y.) and resuspended at 4×10^6 cells/ml. Oligomer was added to 0.1 ml of cells and incubated for 10 minutes on ice. Cells were transferred to a 1 mm gap electrode (BTX, San Diego, Calif.) and electroporated at 0.75 kV/cm. Cells were incubated at room temperature for 10 minutes and transferred to pre-warmed medium. Cells were allowed to rest for 1.5 hours before ICAM-1 expression was induced with 5 ng/ml TNF-αovernight. Cells were stained with an anti-ICAM-1-PE antibody (Pharmingen, San Diego CA) the next day.
# E-selectin mRNA = assay: ELISA of E-selectin expression in HUVECs; type: cell-based, human; conditions: for inhibition of E-selectin expression: oligomer concentration of 50 nM
# ICAM-1 mRNA [2] = assay: ELISA of human ICAM-1 protein expression in HUVECs (mAb84H10); type: cell-based; conditions: FIG. 4 experiment
# ICAM-1 mRNA [3] = assay: Reduction of ICAM-1 protein levels in HUVEC cells (LIPOFECTIN delivery, FACS); type: cell-based, human
# [4] = HUVECs, ELISA, FIG. 5 experiment, read-out: IC50 for reduction of E-selectin expression
# [5] = HUVECs, ELISA, equivalent (second) experiment, read-out: IC50 for reduction of E-selectin expression
# [6] = read-out: IC50 for inhibition of ICAM-1 protein expression
substance,measurement,setting,value
"ISIS 14040: SEQ ID NO: 15, P═S all 2′-O-propyl, all C's are 5meC; VCAM-1 n.t. 1-20 (antisense [PRP-5mC]*[PRP-G]*[PRP-A]*[PRP-T]*[PRP-G]*[PRP-5mC]*[PRP-A]*[PRP-G]*[PRP-A]*[PRP-T]*[PRP-A]*[PRP-5mC]*[PRP-5mC]*[PRP-G]*[PRP-5mC]*[PRP-G]*[PRP-G]*[PRP-A]*[PRP-G]*dT)",IC50,VCAM-1 mRNA; subsequent experiment,< 10 nM
"ISIS 13182: SEQ ID NO: 15, P═S all 2′-MOE, all C's are 5meC; VCAM-1 n.t. 1-20 (antisense e[5mC]*eG*eA*eT*eG*e[5mC]*eA*eG*eA*eT*eA*e[5mC]*e[5mC]*eG*e[5mC]*eG*eG*eA*eG*dT)",IC50,VCAM-1 mRNA; FIG. 6 experiment,< 10 nM
"ISIS 14290: T*GA*GT*AG*CA*GA*GG*AG*CT*C (SEQ ID NO: 12), alternating P═O/MMI; ICAM-1 n.t. 1-18 (TGAGTAGCAGAGGAGCTC; linkages [MMI]o[MMI]o[MMI]o[MMI]o[MMI]o[MMI]o[MMI]o[MMI]o[MMI] (s phosphorothioate, o phosphodiester), sugars by position and methylation of C not given here; 3'-terminal nucleotide 2'-deoxy, non-terminal cytosines 5-methylated)",IC50,ICAM-1 mRNA [1],7000 nM
"ISIS 13183: SEQ ID NO: 15, P═O all 2′-MOE, all C's are 5meC; VCAM-1 n.t. 1-20 (antisense e[5mC]eGeAeTeGe[5mC]eAeGeAeTeAe[5mC]e[5mC]eGe[5mC]eGeGeAeGdT)",IC50,VCAM-1 mRNA; FIG. 6 experiment,< 10 nM
"ISIS 13181: SEQ ID NO: 15 sequence, P═S all 2′ F; VCAM-1 n.t. 1-20 (antisense CGATGCAGATACCGCGGAGT; sugars from the 5' end f19 d1, all phosphorothioate, T or U not given here)",IC50,VCAM-1 mRNA; FIG. 6 experiment,< 10 nM
same,inhibition of VCAM-1 expression,"VCAM-1 mRNA; highest dose tested, 100 nM",100%
"ISIS 11928: SEQ ID NO: 3, P═S all 2′-MOE except 3′ nt is deoxy, all C's 5meC; E-selectin 5′ cap (antisense eG*eA*eA*eG*eT*e[5mC]*eA*eG*e[5mC]*e[5mC]*eA*eA*eG*eA*eA*e[5mC]*eA*eG*e[5mC]*dT)",IC50,E-selectin mRNA; [4],< 3 nM
same,IC50,E-selectin mRNA; [5],< 3 nM
same,inhibition of E-selectin expression,E-selectin mRNA; HUVECs,~100%
"ISIS 9218: SEQ ID NO: 3, P═S all 2′-O-propyl except 3′ nt is deoxy; E-selectin 5′ cap (GAAGTCAGCCAAGAACAGCT; sugars from the 5' end [PRP]19 d1, all phosphorothioate, methylation of C not given here)",IC50,E-selectin mRNA; [5],25 nM
"ISIS 13884: GGCTGAGGTTGCAACTCTGA (SEQ ID NO: 9), uniform P═O/2′MOE; ICAM-1 n.t. 16-35 (antisense eGeGe[5mC]eTeGeAeGeGeTeTeGe[5mC]eAeAe[5mC]eTe[5mC]eTeGdA)",IC50,ICAM-1 mRNA [2]; [6],~40 nM
"ISIS 11205: SEQ ID NO: 3, P═S all 2′ F except 3′ nt is deoxy, all C's 5meC; E-selectin 5′ cap (antisense GAAGTCAGCCAAGAACAGCT; sugars from the 5' end f19 d1, all C 5-methyl, all phosphorothioate, T or U not given here)",IC50,E-selectin mRNA; [4],< 3 nM
same,IC50,E-selectin mRNA; [5],< 3 nM
same,inhibition of E-selectin expression,E-selectin mRNA; HUVECs,~100%
"ISIS 14041: SEQ ID NO: 15, P═S all 2′-O-methyl, all C's are 5meC; VCAM-1 n.t. 1-20 (CGATGCAGATACCGCGGAGT; sugars from the 5' end m19 d1, all C 5-methyl, all phosphorothioate, T or U not given here)",IC50,VCAM-1 mRNA; subsequent experiment,< 10 nM
"ISIS 4764: SEQ ID NO: 3, P═S deoxy; E-selectin 5′ cap (dG*dA*dA*dG*dT*dC*dA*dG*dC*dC*dA*dA*dG*dA*dA*dC*dA*dG*dC*dT)",IC50,E-selectin mRNA; [4],~10 nM
same,IC50,E-selectin mRNA; [5],10 nM
same,IC50,"E-selectin mRNA; HUVECs, FIG. 3 experiment, read-out: IC50 for inhibition of E-selectin expression",< 10 nM
"ISIS 14295: A*GT*AG*CA*GA*GG*AG*CT*C (SEQ ID NO: 13), alternating P═S/MMI; ICAM-1 n.t. 1-16 (AGTAGCAGAGGAGCTC; chemistry not fully specified)",IC50,ICAM-1 mRNA [1],35000 nM
"ISIS 14043: SEQ ID NO: 3, P═S all 2′-O-methyl except 3′ nt is deoxy, all C's 5meC; E-selectin 5′ cap (GAAGTCAGCCAAGAACAGCT; sugars from the 5' end m19 d1, all C 5-methyl, all phosphorothioate, T or U not given here)",IC50,E-selectin mRNA; [5],10 nM
"ISIS 9984: SEQ ID NO: 3 GAAGTCAGCCAAGAACAGCT, P═S all 2′ F except 3′ nt is deoxy; E-selectin 5′ cap (sugars from the 5' end f19 d1, all phosphorothioate, T or U not given here)",IC50 for inhibition of E-selectin expression,"E-selectin mRNA; HUVECs, FIG. 3 experiment",well below this
same,relative activity in inhibiting E-selectin protein expression,E-selectin mRNA; among over 30 2′-fluoro phosphorothioate sequences complementary to various regions of the E-selectin message,by far the most active
"ISIS 13886: GCAACTCTGAGTAGCAGAGG (SEQ ID NO: 10), uniform P═O/2′MOE; ICAM-1 n.t. 6-25 (antisense eGe[5mC]eAeAe[5mC]eTe[5mC]eTeGeAeGeTeAeGe[5mC]eAeGeAeGdG)",IC50,ICAM-1 mRNA [2]; [6],> 50 nM
same,IC50,"ICAM-1 mRNA [2]; tested only up to 50 nM, read-out: estimated IC50 by extrapolation of the dose-response curve",~60 nM
"ISIS 5884: CGATGCAGATACCGCGGAGT (SEQ ID NO: 15), P═S deoxy; VCAM-1 n.t. 1-20 (dC*dG*dA*dT*dG*dC*dA*dG*dA*dT*dA*dC*dC*dG*dC*dG*dG*dA*dG*dT)",IC50,VCAM-1 mRNA; FIG. 6 experiment,10 to 12 nM
"ISIS 11158: SEQ ID NO: 1, 2′-methoxyethoxy, phosphodiester (P═O); targeted to ICAM-1 5′ cap (antisense TCTGAGTAGCAGAGGAGCTC; all 2'-MOE, all phosphodiester, methylation of C not given here)",IC50,ICAM-1 mRNA [1],1000 nM
same,IC50,ICAM-1 mRNA [2]; [6],~5 nM
same,ICAM-1 protein expression at the oligonucleotide concentrations of the Northern experiment,ICAM-1 mRNA [3]; HUVECs,completely inhibited
same,IC50,"ICAM-1 mRNA [3]; read-out: IC50 (concentration required for 50% inhibition of ICAM-1 levels), HUVEC cells",~9 nM
"ISIS 14292: T*AG*CA*GA*GG*AG*CT*C (SEQ ID NO: 14), alternating P═O/MMI; ICAM-1 n.t. 1-14 (TAGCAGAGGAGCTC; linkages [MMI]o[MMI]o[MMI]o[MMI]o[MMI]o[MMI]o[MMI] (s phosphorothioate, o phosphodiester), sugars by position and methylation of C not given here; 3'-terminal nucleotide 2'-deoxy, non-terminal cytosines 5-methylated)",IC50,ICAM-1 mRNA [1],15000 nM

# Reference: patent US20020052331A1, “Compositions and methods for antisense inhibition of protein translation” (priority 1990, published 2002)
